≈ marks a conversion by molar mass, not a printed value.
Columns and labels:
[1] = test system: NOX3 reconstituted with p47phox and p67phox; assay: NOX3 reconstituted with cytosolic phox proteins (p47phox and p67phox), data not shown; assay type: cell-based
Excerpt: Another experiment (data not shown) examined the potency of NCATS-SM7270 against NOX1 and NOX3 reconstituted with cytosolic phox proteins (p47phox and p67phox).

[2] = test system: mTBI induced cortical cell death; assay: Focal cortical mTBI model, transcranial administration, cortical cell death (propidium iodide); assay type: in vivo, mouse
[3] = Aqueous kinetic solubility in PBS buffer; assay type: physicochemical; conditions: aqueous buffer, kinetic from dmso stock, read-out: Solubility
Procedure: (§1) The rat liver microsomal stability, parallel artificial membrane permeability assay (PAMPA), and aqueous kinetic solubility assay in phosphate-buffered saline (PBS) buffer were performed as described in the indicated references.

NOX1 = biological target: T1, NOX1 (Homo sapiens, UniProt Q9Y5S8); assay: Expi293 whole cell assay, NOX1 overexpression; assay type: cell-based; conditions: highest dose about 100x the IC50 versus NOX2
T1 construct: expressed in transfected cells; host or cells: Expi293 (human embryonic kidney) cells, transient transfection
T1 sequence (Q9Y5S8 1-564): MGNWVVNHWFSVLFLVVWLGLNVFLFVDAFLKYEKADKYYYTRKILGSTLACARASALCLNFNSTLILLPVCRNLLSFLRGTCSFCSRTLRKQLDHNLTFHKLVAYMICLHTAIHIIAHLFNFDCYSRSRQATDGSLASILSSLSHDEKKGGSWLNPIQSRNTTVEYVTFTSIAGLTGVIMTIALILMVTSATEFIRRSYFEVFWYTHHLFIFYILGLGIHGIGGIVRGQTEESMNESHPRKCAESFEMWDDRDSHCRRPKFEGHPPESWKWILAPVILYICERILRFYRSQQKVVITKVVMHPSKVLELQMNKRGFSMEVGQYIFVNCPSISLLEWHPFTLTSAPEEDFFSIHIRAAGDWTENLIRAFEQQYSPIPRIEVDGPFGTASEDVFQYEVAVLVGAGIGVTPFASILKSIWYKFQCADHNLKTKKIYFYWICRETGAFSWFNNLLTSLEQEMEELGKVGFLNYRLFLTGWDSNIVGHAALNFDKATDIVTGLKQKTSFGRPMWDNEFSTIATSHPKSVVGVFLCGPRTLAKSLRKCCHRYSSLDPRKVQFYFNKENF
T1 sequence (P13498 2-195 partner limits assumed): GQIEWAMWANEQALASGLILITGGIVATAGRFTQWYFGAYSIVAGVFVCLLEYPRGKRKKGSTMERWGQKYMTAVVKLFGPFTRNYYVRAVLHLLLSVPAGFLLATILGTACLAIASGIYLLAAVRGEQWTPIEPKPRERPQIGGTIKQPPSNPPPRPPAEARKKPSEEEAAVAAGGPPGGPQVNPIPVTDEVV
Procedure: (§2) Given concerns about previous assays for specific NOX family members we here report the first use of the Expi293 Expression System (Thermo Scientific) to overexpress NOX1, 2, 3, 4, and 5 in excess of any endogenous NOX proteins present in these cells. Transfections were performed following the manufacturer's instructions using the plasmids for each NOX as described in Supplemental Table 2 except that the enhancer solution provided with the Expi293 system was not used because it promoted enzyme activation.
(§3) After the times indicated in Supplemental Table 2, cells were washed and 50,000 added per well of a white 96-well plate (Greiner) along with 50 μM Luminol and 2.5 U horseradish peroxidase/mL in a volume of 90 μl for NOX1, NOX2, and NOX5. Inhibitors or vehicle controls were added and cells were incubated for 20 min at 37 °C prior to activation with the indicated stimuli. For NOX3 and NOX4 (constitutively active), cells were incubated with inhibitor or vehicle control prior to the addition of luminol and HRP. Chemiluminescence was measured every 2 min for 1 s per well at 37 °C in a Varioscan Multimode reader. AUC data were analyzed using GraphPad Prism using non-linear regression analysis after expressing relative to control alone (maximum ROS production).

[4] = Parallel artificial membrane permeability assay (PAMPA); assay type: in vitro ADME; conditions: pH 7.4, PAMPA, pH7.4, read-out: Permeability(pH7.4) (PAMPA_Pion_Lipid 1e-6 cm/s)
Procedure: as §1

NOX5 = biological target: T2, NOX5 (Homo sapiens, UniProt Q96PH1); assay: Expi293 whole cell assay, NOX5 overexpression; assay type: cell-based; conditions: highest dose about 100x the IC50 versus NOX2
T2 sequence (Q96PH1 1-719 isoform Q96PH1-4): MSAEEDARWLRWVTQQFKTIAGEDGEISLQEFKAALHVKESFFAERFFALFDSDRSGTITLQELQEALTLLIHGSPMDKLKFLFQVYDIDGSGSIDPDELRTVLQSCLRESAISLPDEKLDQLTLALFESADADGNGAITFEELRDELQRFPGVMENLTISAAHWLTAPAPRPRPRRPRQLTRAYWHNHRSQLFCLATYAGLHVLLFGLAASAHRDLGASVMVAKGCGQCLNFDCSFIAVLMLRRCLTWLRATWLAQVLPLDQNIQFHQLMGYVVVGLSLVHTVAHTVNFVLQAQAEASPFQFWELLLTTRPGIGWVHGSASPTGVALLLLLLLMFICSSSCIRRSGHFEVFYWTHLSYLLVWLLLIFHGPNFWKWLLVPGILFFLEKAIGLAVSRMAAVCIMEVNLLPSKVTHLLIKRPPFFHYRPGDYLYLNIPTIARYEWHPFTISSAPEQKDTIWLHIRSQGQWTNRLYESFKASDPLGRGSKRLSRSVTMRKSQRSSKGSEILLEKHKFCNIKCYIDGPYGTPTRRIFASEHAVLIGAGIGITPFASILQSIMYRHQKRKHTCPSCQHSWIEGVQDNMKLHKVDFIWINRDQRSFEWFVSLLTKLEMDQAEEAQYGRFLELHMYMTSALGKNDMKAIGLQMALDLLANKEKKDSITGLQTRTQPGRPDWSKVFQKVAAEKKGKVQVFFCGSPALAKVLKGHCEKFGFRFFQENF
Procedure: as §2, §3

Cn1ccc(S(=O)(=O)Nc2ccnc3c2c(-c2ccc4ccn(C)c4c2)cn3C2CC2)n1 [NCATS-SM7270, N-(1-cyclopropyl-3-(1-methyl-1H-indol-6-yl)-1H-pyrrolo [2,3-b]pyridin-4-yl)-1-methyl-1H-pyrazole-3-sulfonamide]
dose needed to observe inhibition of NOX3 versus NOX2 [1]: ~10 fold | cortical cell death in NOX1 deficient mice ([2]; NOX1 KO mice, 40 μM transcranial): had no impact | cortical cell death in NOX2 deficient mice ([2]; NOX2 KO mice, 40 μM transcranial): had no impact | cortical cell death in NOX4 KO mice ([2]; NOX4 KO mice, 40 μM transcranial): significantly reduced cortical cell death | reduction of cortical cell death ([2]; WT mice, 40 μM transcranially immediately after mTBI): ~50% | dose dependence of reduction in mTBI induced cortical cell death ([2]; WT mice, transcranial, titration 10, 50 or 100 μM): dose-dependent reduction | solubility [3]: 19.6 µg/mL (≈ 43.9 µM) | activity against NOX1 (NOX1): only marginal activity at the highest dose tested | Papp [4]: 999 ×10⁻⁶ cm/s | activity against NOX5 (NOX5): only marginal activity at the highest dose tested
